Measurements published in publication PMC2664976 (The Journal of General Physiology, 2009).

Tests used:
wtCFTR = wtCFTR (Homo sapiens, UniProt P13569); assay: whole cell patch clamp, HEK […] chloride current; format: cell-based
SLC26A9 = target: T1, SLC26A9 (Homo sapiens, UniProt Q7LBE3); assay: whole cell patch clamp, HEK […] chloride current; format: cell-based; details: read-out: % inhibition at 50 μM
T1 sequence (Q7LBE3 1-791): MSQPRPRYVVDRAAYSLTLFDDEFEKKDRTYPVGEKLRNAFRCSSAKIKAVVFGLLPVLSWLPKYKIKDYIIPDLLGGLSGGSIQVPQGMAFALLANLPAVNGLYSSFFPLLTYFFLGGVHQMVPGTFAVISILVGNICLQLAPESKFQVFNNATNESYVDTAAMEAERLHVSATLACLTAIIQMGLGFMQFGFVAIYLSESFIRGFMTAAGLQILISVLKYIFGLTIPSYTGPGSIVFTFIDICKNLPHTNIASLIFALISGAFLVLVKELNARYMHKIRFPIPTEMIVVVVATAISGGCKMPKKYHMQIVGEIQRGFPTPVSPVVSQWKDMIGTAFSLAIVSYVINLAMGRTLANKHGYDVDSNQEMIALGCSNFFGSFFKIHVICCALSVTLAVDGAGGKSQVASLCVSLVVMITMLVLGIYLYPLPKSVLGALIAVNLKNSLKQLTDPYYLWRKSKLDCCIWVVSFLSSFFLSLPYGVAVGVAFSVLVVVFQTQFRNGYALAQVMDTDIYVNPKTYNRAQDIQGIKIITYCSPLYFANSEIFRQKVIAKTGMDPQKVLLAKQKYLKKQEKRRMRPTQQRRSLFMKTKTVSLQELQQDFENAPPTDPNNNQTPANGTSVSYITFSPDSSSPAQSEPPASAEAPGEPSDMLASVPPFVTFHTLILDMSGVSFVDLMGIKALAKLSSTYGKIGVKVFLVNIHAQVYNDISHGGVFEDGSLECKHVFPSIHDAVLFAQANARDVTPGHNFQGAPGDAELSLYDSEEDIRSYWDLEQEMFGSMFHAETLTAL

Chain of wtCFTR (P13569 whole entry): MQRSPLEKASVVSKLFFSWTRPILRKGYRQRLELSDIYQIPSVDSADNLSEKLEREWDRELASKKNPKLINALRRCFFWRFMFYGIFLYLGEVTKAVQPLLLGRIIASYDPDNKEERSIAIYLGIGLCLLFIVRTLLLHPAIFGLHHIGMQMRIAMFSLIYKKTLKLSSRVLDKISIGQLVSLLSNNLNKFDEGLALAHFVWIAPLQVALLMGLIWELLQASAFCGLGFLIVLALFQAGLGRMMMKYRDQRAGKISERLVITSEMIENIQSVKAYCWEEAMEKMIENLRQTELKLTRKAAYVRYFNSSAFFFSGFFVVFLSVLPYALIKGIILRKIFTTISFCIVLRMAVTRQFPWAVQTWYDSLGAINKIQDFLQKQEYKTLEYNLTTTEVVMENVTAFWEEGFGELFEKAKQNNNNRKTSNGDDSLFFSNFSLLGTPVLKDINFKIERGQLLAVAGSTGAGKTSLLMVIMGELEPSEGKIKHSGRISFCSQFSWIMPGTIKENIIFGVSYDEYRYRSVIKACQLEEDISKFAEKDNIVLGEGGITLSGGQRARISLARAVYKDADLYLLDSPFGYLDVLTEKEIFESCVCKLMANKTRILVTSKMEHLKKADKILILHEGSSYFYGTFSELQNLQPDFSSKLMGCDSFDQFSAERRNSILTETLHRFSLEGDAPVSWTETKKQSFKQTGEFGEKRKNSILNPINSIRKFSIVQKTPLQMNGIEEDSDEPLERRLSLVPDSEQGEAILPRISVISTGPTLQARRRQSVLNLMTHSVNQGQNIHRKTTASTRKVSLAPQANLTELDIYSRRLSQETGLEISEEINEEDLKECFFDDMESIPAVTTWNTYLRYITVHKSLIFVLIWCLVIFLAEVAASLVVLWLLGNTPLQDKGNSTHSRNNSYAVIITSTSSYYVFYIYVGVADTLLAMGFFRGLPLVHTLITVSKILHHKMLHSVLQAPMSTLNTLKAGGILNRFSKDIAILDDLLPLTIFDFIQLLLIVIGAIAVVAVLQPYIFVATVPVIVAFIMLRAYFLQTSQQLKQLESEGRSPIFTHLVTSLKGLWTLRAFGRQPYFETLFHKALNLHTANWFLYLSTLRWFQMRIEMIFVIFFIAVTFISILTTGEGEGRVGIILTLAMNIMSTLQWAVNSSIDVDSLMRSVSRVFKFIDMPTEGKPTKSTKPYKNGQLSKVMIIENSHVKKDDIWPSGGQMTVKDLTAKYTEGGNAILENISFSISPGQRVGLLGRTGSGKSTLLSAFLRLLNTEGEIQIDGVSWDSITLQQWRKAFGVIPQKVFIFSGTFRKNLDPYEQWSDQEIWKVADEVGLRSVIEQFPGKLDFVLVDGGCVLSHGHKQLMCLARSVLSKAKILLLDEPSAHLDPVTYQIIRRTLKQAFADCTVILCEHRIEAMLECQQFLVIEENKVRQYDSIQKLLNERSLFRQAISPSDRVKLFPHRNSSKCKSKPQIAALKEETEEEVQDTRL

inhibition at 100 µM (wtCFTR; read-out: % inhibition (glibenclamide, 100 μM)) [%]	inhibition at 50 µM (SLC26A9) [%]	inhibition at 50 µM (wtCFTR; read-out: % inhibition (GlyH-101, 50 μM)) [%]	SMILES
52 ± 10			COc1ccc(Cl)cc1C(=O)NCCc1ccc(S(=O)(=O)NC(=O)NC2CCCCC2)cc1 [glibenclamide]
	71 ± 4	90 ± 2	O=C(CNc1ccc2ccccc2c1)NN=Cc1cc(Br)c(O)c(Br)c1O [GlyH-101]
